Results as given in patent US20220306695A1, “COMPSTATIN ANALOGUES AND THEIR MEDICAL USES” (priority 2019, published 2022).
Positions of bridges follow the written chain, without caps; N, C: chain ends. Non-standard residues stand in square brackets, D forms with d. Residues, ends and D or L forms follow the SMILES beside them. Trp(1-Me) = Cn1cc(C[C@H](N)C(=O)O)c2ccccc21; 2Nal = N[C@@H](Cc1ccc2ccccc2c1)C(=O)O; Sar = CNCC(=O)O

How the values were obtained:
[1] = test system: classical complement pathway; assay: In vitro haemolysis assay (inhibition of classical complement pathway); type: cell-based, human; conditions: Table 3; human serum, sensitized sheep red blood cells; read-out: IC50[nM], in vitro analysis of inhibition of hemolysis
Method in brief: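 Serially diluted compound (9 points) was preincubated 15 min at room temperature with diluted human serum, titrated per batch to give 70-90% maximal haemolysis, in Tris/casein buffer pH 7.4 with Mg2+/Ca2+. Antibody-sensitized sheep erythrocytes were then added for 30 min at 37° C, and the reaction was stopped with EDTA. Haemolysis was read at A405, with IC50 from 4PL fit.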

[2] = Solubility test at 10 mg/mL (visual inspection and light scattering); type: physicochemical; conditions: for Solubility, Condition 1 Acetate pH 4: 10 mg/mL compound in 100 mM acetate pH 4; for Solubility, Condition 2 Acetate pH 5: 10 mg/mL compound in 100 mM acetate pH 5; for Solubility, Condition 3 Phosphate pH 6: 10 mg/mL compound in 100 mM phosphate pH 6; for Solubility, Condition 4 Phosphate pH 7: 10 mg/mL compound in 100 mM phosphate pH 7; for Solubility, Condition 5 Phosphate pH 7.5: 10 mg/mL compound in 100 mM phosphate pH 7.5
[3] = biological target: Human C3 (human, UniProt P01024 23-1663); assay: cell-based or functional assay
Sequence of Human C3 (P01024 23-1663 limits assumed): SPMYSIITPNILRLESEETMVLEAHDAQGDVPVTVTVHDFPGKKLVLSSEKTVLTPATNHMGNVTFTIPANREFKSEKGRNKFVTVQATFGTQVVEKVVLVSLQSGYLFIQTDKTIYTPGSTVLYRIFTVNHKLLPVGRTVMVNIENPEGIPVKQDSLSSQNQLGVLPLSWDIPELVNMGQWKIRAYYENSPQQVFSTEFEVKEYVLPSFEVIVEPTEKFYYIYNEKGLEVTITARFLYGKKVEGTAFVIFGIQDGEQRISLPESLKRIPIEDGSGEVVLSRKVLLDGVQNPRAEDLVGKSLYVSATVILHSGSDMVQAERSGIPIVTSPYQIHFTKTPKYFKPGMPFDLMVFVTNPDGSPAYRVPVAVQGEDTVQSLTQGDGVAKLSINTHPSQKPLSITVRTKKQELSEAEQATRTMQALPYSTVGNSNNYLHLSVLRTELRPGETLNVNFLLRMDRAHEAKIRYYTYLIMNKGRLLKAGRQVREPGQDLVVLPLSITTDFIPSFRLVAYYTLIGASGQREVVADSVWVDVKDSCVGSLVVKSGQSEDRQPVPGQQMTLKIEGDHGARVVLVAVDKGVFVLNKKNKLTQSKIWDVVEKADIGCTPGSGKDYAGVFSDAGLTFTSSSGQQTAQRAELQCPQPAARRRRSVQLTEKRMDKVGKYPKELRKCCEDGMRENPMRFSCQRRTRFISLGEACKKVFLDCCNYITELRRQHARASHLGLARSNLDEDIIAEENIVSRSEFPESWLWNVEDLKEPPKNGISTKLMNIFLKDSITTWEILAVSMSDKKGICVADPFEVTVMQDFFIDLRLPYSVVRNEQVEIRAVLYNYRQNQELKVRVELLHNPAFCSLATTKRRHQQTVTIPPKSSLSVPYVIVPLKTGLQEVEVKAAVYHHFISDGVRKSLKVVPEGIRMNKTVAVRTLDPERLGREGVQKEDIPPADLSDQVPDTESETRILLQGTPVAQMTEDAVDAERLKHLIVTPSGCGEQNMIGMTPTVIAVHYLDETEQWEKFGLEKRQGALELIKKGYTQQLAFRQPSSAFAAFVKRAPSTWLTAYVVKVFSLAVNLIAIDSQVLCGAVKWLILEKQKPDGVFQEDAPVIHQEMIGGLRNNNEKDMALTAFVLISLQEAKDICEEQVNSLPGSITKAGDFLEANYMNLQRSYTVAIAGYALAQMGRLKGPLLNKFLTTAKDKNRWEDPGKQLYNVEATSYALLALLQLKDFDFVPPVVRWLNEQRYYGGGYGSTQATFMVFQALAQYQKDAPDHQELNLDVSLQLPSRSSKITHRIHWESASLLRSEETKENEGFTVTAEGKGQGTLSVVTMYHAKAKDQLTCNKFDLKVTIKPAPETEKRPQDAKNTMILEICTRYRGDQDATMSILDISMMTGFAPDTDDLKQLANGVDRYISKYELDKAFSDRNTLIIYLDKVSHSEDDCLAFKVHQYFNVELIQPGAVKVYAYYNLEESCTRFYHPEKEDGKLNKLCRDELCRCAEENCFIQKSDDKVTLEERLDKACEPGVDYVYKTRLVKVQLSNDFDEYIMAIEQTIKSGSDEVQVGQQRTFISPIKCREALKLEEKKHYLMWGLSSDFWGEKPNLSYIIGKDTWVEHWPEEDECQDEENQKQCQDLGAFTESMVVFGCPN

CC[C@H](C)[C@H](NC(C)=O)C(=O)N[C@H]1CSSC[C@@H](C(=O)N[C@@H](CCC(=O)O)C(N)=O)NC(=O)[C@H](CCCNC(=N)N)NC(=O)[C@H](Cc2c[nH]cn2)NC(=O)[C@H](CCC(=O)O)NC(=O)CNC(=O)[C@H](Cc2c[nH]c3ccccc23)NC(=O)[C@H](CC(=O)O)NC(=O)[C@H](CCC(N)=O)NC(=O)[C@H](Cc2c[nH]c3ccccc23)NC(=O)[C@H]([C@@H](C)CC)NC1=O [Compound 22] (Ac-ICIWQDWGEHRCE-NH2; disulfide 2-12)
IC50 [1]: < 100 nM | Solubility, Condition 1 Acetate pH 4 [2]: + (denotes solubility at the given condition, as determined by UV absorbance being less than 0.1 AU at 340 nm and the sample being clear when manually inspected.) | Solubility, Condition 2 Acetate pH 5 [2]: − (denotes lack of solubility at the given condition, as UV absorbance at 340 nm exceeds 0.1 AU and/or it is visibly turbid or contains particles.) | Solubility, Condition 3 Phosphate pH 6 [2]: − (denotes lack of solubility at the given condition, as UV absorbance at 340 nm exceeds 0.1 AU and/or it is visibly turbid or contains particles.) | Solubility, Condition 4 Phosphate pH 7 [2]: + (denotes solubility at the given condition, as determined by UV absorbance being less than 0.1 AU at 340 nm and the sample being clear when manually inspected.) | Solubility, Condition 5 Phosphate pH 7.5 [2]: + (denotes solubility at the given condition, as determined by UV absorbance being less than 0.1 AU at 340 nm and the sample being clear when manually inspected.)

CC[C@H](C)[C@@H]1NC(=O)[C@@H](NC(=O)[C@H](Cc2ccccc2)NC(C)=O)CSSC[C@@H](C(=O)N[C@H](C(=O)NCC(=O)N[C@@H](C)C(=O)N[C@@H](CCC(=O)O)C(=O)N[C@@H](CO)C(N)=O)[C@@H](C)O)NC(=O)[C@H](CCCNC(=N)N)NC(=O)[C@H](Cc2c[nH]cn2)NC(=O)[C@H](CCC(=O)O)NC(=O)CN(C)C(=O)[C@H](Cc2c[nH]c3ccccc23)NC(=O)[C@H](CC(=O)O)NC(=O)[C@H](CCC(N)=O)NC(=O)[C@H](Cc2cn(C)c3ccccc23)NC1=O [Compound 72, Ac-FC(1)I[1-Me-Trp]QDW[Sar]EHRC(1)TGAES-NH2] (Ac-FCI[Trp(1-Me)]QDW[Sar]EHRCTGAES-NH2; disulfide 2-12)
IC50 [1]: < 100 nM | Solubility, Condition 1 Acetate pH 4 [2]: − (denotes lack of solubility at the given condition, as UV absorbance at 340 nm exceeds 0.1 AU and/or it is visibly turbid or contains particles.) | Solubility, Condition 2 Acetate pH 5 [2]: − (denotes lack of solubility at the given condition, as UV absorbance at 340 nm exceeds 0.1 AU and/or it is visibly turbid or contains particles.) | Solubility, Condition 3 Phosphate pH 6 [2]: + (denotes solubility at the given condition, as determined by UV absorbance being less than 0.1 AU at 340 nm and the sample being clear when manually inspected.) | Solubility, Condition 4 Phosphate pH 7 [2]: + (denotes solubility at the given condition, as determined by UV absorbance being less than 0.1 AU at 340 nm and the sample being clear when manually inspected.) | Solubility, Condition 5 Phosphate pH 7.5 [2]: + (denotes solubility at the given condition, as determined by UV absorbance being less than 0.1 AU at 340 nm and the sample being clear when manually inspected.)

CC[C@H](C)[C@@H]1NC(=O)[C@@H](NC(=O)[C@H](Cc2ccccc2)NC(=O)[C@H](C)NC(=O)[C@H](CO)NC(=O)CNC(=O)[C@H](CCC(=O)O)NC(C)=O)CSSC[C@@H](C(=O)N[C@H](C(=O)N[C@@H](CCC(=O)O)C(N)=O)[C@@H](C)O)NC(=O)[C@H](CCCNC(=N)N)NC(=O)[C@H](Cc2c[nH]cn2)NC(=O)[C@H](CCC(=O)O)NC(=O)CNC(=O)[C@H](Cc2c[nH]c3ccccc23)NC(=O)[C@H](CC(=O)O)NC(=O)[C@H](CCC(N)=O)NC(=O)[C@H](Cc2ccc3ccccc3c2)NC1=O [Compound 60] (Ac-EGSAFCI[2Nal]QDWGEHRCTE-NH2; disulfide 6-16)
IC50 [1]: < 100 nM | Solubility, Condition 1 Acetate pH 4 [2]: − (denotes lack of solubility at the given condition, as UV absorbance at 340 nm exceeds 0.1 AU and/or it is visibly turbid or contains particles.) | Solubility, Condition 2 Acetate pH 5 [2]: − (denotes lack of solubility at the given condition, as UV absorbance at 340 nm exceeds 0.1 AU and/or it is visibly turbid or contains particles.) | Solubility, Condition 3 Phosphate pH 6 [2]: + (denotes solubility at the given condition, as determined by UV absorbance being less than 0.1 AU at 340 nm and the sample being clear when manually inspected.) | Solubility, Condition 4 Phosphate pH 7 [2]: + (denotes solubility at the given condition, as determined by UV absorbance being less than 0.1 AU at 340 nm and the sample being clear when manually inspected.) | Solubility, Condition 5 Phosphate pH 7.5 [2]: + (denotes solubility at the given condition, as determined by UV absorbance being less than 0.1 AU at 340 nm and the sample being clear when manually inspected.)

CC[C@H](C)[C@H](NC(=O)[C@H](C)NC(=O)[C@H](CO)NC(=O)CNC(C)=O)C(=O)N[C@H]1CSSC[C@@H](C(=O)N(C)CC(=O)N[C@@H](CCC(=O)O)C(N)=O)NC(=O)[C@H](CCCNC(=N)N)NC(=O)[C@H](Cc2c[nH]cn2)NC(=O)[C@H](CCC(=O)O)NC(=O)CNC(=O)[C@H](Cc2c[nH]c3ccccc23)NC(=O)[C@H](CC(=O)O)NC(=O)[C@H](CCC(N)=O)NC(=O)[C@H](Cc2c[nH]c3ccccc23)NC(=O)[C@H]([C@@H](C)CC)NC1=O [Compound 40] (Ac-GSAICIWQDWGEHRC[Sar]E-NH2; disulfide 5-15)
IC50 [1]: < 250 nM | Solubility, Condition 1 Acetate pH 4 [2]: − (denotes lack of solubility at the given condition, as UV absorbance at 340 nm exceeds 0.1 AU and/or it is visibly turbid or contains particles.) | Solubility, Condition 2 Acetate pH 5 [2]: − (denotes lack of solubility at the given condition, as UV absorbance at 340 nm exceeds 0.1 AU and/or it is visibly turbid or contains particles.) | Solubility, Condition 3 Phosphate pH 6 [2]: + (denotes solubility at the given condition, as determined by UV absorbance being less than 0.1 AU at 340 nm and the sample being clear when manually inspected.) | Solubility, Condition 4 Phosphate pH 7 [2]: + (denotes solubility at the given condition, as determined by UV absorbance being less than 0.1 AU at 340 nm and the sample being clear when manually inspected.) | Solubility, Condition 5 Phosphate pH 7.5 [2]: + (denotes solubility at the given condition, as determined by UV absorbance being less than 0.1 AU at 340 nm and the sample being clear when manually inspected.)

CC[C@H](C)[C@@H]1NC(=O)[C@@H](NC(=O)[C@H](Cc2ccccc2)NC(=O)[C@H](CCC(=O)O)NC(=O)[C@H](CO)NC(C)=O)CSSC[C@@H](C(=O)N(C)CC(=O)N[C@@H](CCC(=O)O)C(=O)N[C@@H](C)C(N)=O)NC(=O)[C@H](CCCNC(=N)N)NC(=O)[C@H](Cc2c[nH]cn2)NC(=O)[C@H](CCC(=O)O)NC(=O)CN(C)C(=O)[C@H](Cc2c[nH]c3ccccc23)NC(=O)[C@H](CC(=O)O)NC(=O)[C@H](CCC(N)=O)NC(=O)[C@H](Cc2cn(C)c3ccccc23)NC1=O [Compound 76, Ac-SEFC(1)I[1-Me-Trp]QDW[SarlEHRC(1)[Sar]EA-NH2] (Ac-SEFCI[Trp(1-Me)]QDW[Sar]EHRC[Sar]EA-NH2; disulfide 4-14)
IC50 [1]: < 100 nM | Solubility, Condition 1 Acetate pH 4 [2]: − (denotes lack of solubility at the given condition, as UV absorbance at 340 nm exceeds 0.1 AU and/or it is visibly turbid or contains particles.) | Solubility, Condition 2 Acetate pH 5 [2]: − (denotes lack of solubility at the given condition, as UV absorbance at 340 nm exceeds 0.1 AU and/or it is visibly turbid or contains particles.) | Solubility, Condition 3 Phosphate pH 6 [2]: + (denotes solubility at the given condition, as determined by UV absorbance being less than 0.1 AU at 340 nm and the sample being clear when manually inspected.) | Solubility, Condition 4 Phosphate pH 7 [2]: + (denotes solubility at the given condition, as determined by UV absorbance being less than 0.1 AU at 340 nm and the sample being clear when manually inspected.) | Solubility, Condition 5 Phosphate pH 7.5 [2]: + (denotes solubility at the given condition, as determined by UV absorbance being less than 0.1 AU at 340 nm and the sample being clear when manually inspected.)

CC[C@H](C)[C@@H]1NC(=O)[C@@H](NC(=O)[C@H](Cc2ccc(O)cc2)NC(C)=O)CSSC[C@@H](C(=O)N[C@H](C(=O)N[C@@H](CCC(=O)O)C(=O)N[C@@H](C)C(=O)NCC(=O)N[C@@H](CO)C(N)=O)[C@@H](C)O)NC(=O)[C@H](CCCNC(=N)N)NC(=O)[C@H](Cc2c[nH]cn2)NC(=O)[C@H](CCC(=O)O)NC(=O)CNC(=O)[C@H](Cc2c[nH]c3ccccc23)NC(=O)[C@H](CC(=O)O)NC(=O)[C@H](CCC(N)=O)NC(=O)[C@H](Cc2cn(C)c3ccccc23)NC1=O [Compound 68] (Ac-YCI[Trp(1-Me)]QDWGEHRCTEAGS-NH2; disulfide 2-12)
IC50 [1]: < 100 nM | Solubility, Condition 1 Acetate pH 4 [2]: − (denotes lack of solubility at the given condition, as UV absorbance at 340 nm exceeds 0.1 AU and/or it is visibly turbid or contains particles.) | Solubility, Condition 2 Acetate pH 5 [2]: − (denotes lack of solubility at the given condition, as UV absorbance at 340 nm exceeds 0.1 AU and/or it is visibly turbid or contains particles.) | Solubility, Condition 3 Phosphate pH 6 [2]: + (denotes solubility at the given condition, as determined by UV absorbance being less than 0.1 AU at 340 nm and the sample being clear when manually inspected.) | Solubility, Condition 4 Phosphate pH 7 [2]: + (denotes solubility at the given condition, as determined by UV absorbance being less than 0.1 AU at 340 nm and the sample being clear when manually inspected.) | Solubility, Condition 5 Phosphate pH 7.5 [2]: + (denotes solubility at the given condition, as determined by UV absorbance being less than 0.1 AU at 340 nm and the sample being clear when manually inspected.)

B1: Compound 4 (peptide)
peptide: Ac-ICI[Trp(1-Me)]QDWGEHRCT-NH2
modifications: disulfide 2-12
SMILES: CC[C@H](C)[C@H](NC(C)=O)C(=O)N[C@H]1CSSC[C@@H](C(=O)N[C@H](C(N)=O)[C@@H](C)O)NC(=O)[C@H](CCCNC(=N)N)NC(=O)[C@H](Cc2c[nH]cn2)NC(=O)[C@H](CCC(=O)O)NC(=O)CNC(=O)[C@H](Cc2c[nH]c3ccccc23)NC(=O)[C@H](CC(=O)O)NC(=O)[C@H](CCC(N)=O)NC(=O)[C@H](Cc2cn(C)c3ccccc23)NC(=O)[C@H]([C@@H](C)CC)NC1=O
IC50[nM], inhibition of hemolysis [3]: < 100 nM
